# Patent US7737155B2, “Nitrogen-containing heterocyclic compounds and methods of use thereof” (Schering Corporation, priority 2005, dated 2010)
# Molecular target: recombinant human nicotinic acid receptor (NAR) (Homo sapiens, UniProt Q8TDS4)
# Assay: Nicotinic Acid Receptor Assay: inhibition of forskolin-stimulated cAMP accumulation in CHO cells (MesoScale Discovery cAMP kit)
# Format: cell-based
# Conditions: CHO cells expressing recombinant human NAR; forskolin-stimulated cAMP; read-out: NA EC50 camp
# Experimental: The nicotinic acid receptor agonist activity of the inventive compounds was determined by following the inhibition of forskolin-stimulated cAMP accumulation in cells using the MesoScale Discovery cAMP detection kit following the manufacture's protocol. Briefly, Chinese Hamster Ovary (CHO) cells expressing recombinant human nicotinic acid receptor (NAR) were harvested enzymatically, washed 1× in phosphate buffered saline (PBS) and resuspended in PBS containing 0.5 mM IBMX at 3×10^6 cells/mL. Ten μL of cell suspension was added to each well of a 384-well plate which contained 10 μL of test compounds. Test compounds were diluted with PBS containing 6 μM of forskolin. Plates were incubated for 30 minutes at room temperature after the addition of cells. Lysis buffer containing cAMP-Tag was added to each well (10 μL/well) as per the manufacturer's protocol. Plates were then incubated from 45 minutes to overnight. Prior to reading, 10 μL of read buffer was added to each well, and the plate was read in a Sector 6000 plate imager. The signal was converted to cAMP concentration using a standard curve run on each plate.
# Sequence of recombinant human nicotinic acid receptor (NAR) (Q8TDS4 whole entry): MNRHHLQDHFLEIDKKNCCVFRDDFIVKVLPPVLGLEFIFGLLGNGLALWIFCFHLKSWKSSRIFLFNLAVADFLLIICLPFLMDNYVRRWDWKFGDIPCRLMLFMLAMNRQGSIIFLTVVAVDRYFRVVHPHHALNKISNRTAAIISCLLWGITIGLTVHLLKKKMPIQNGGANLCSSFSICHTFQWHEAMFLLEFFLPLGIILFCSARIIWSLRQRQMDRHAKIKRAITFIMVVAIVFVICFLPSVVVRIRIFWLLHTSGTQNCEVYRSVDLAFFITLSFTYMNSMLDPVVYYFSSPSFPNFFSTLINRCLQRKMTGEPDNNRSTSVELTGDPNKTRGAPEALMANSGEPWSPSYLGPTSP
row,SMILES,EC50 [nM]
1,CCc1cc(=O)oc2nc(OCc3ccc(-n4cncn4)cc3)[nH]c(=O)c12 [Compound 628],> 1000
2,CCc1cc(=O)oc2nc(OCc3cnco3)[nH]c(=O)c12 [Compound 657],> 1000
3,CCc1cc(=O)oc2nc(OCc3ccc(C#N)cc3)[nH]c(=O)c12 [Compound 630],> 1000
4,CCc1cc(=O)oc2nc(OCC(C)(C)S(=O)(=O)c3ccc(Cl)cc3)[nH]c(=O)c12 [Compound 663],> 1000
5,CC(C)CCc1cc(=O)oc2[nH]c(=O)n(CC3CC3)c(=O)c12 [Compound 260],> 1000
6,CCc1cc(=O)oc2nc(OCc3cccc(-c4ccc(F)c(Cl)c4)c3)[nH]c(=O)c12 [Compound 558],> 1000
7,N#Cc1cccc(Cc2cc(=O)oc3[nH]c(=O)[nH]c(=O)c23)c1 [Compound 231],> 1000
8,O=c1[nH]c(=O)c2c(CCC#Cc3ccccc3)cc(=O)oc2[nH]1 [Compound 220],> 1000
9,CCn1c(=O)[nH]c(=O)c2c(CCC3CC3)cc(=O)oc21 [Compound 277],> 1000
10,CCc1cc(=O)oc2nc(OC(C)c3ccccc3C(F)(F)F)[nH]c(=O)c12 (stereo not drawn) [Compound 508],> 1000
11,O=c1cc(Cc2ccccc2)c2c(=O)[nH]c(OCc3ccccc3)nc2o1 [Compound 627],> 1000
12,O=c1[nH]c(=O)c2c(CC3CCNC3)cc(=O)oc2[nH]1 (stereo not drawn) [Compound 244],> 1000
13,COC(C)(C)CCc1cc(=O)oc2[nH]c(=O)[nH]c(=O)c12 [Compound 279],> 1000
14,CCc1cc(=O)oc2nc(OCc3ccccc3-c3cccc(C)c3)[nH]c(=O)c12 [Compound 550],> 1000
15,CCc1cc(=O)oc2nc(OCc3cc4c(C)nn(C)c4s3)[nH]c(=O)c12 [Compound 646],> 1000
16,CCc1c(-c2ccccc2)c(=O)oc2[nH]c(=O)n(C3CCC3)c(=O)c12 [Compound 203],> 1000
17,CC(=O)Nc1ccc(-c2c(CCC3CCC3)c3c(=O)[nH]c(=O)[nH]c3oc2=O)cc1 [Compound 704],> 1000
18,CC(C)(C)OC(=O)N1CCC(Cc2cc(=O)oc3[nH]c(=O)[nH]c(=O)c23)CC1 [Compound 221],> 1000
19,CC(C)(C)CCc1cc(=O)oc2[nH]c(=O)[nH]c(=O)c12 [Compound 263],> 1000
20,CCC(CC)Cc1cc(=O)oc2[nH]c(=O)[nH]c(=O)c12 [Compound 267],> 1000
21,CCc1cc(=O)oc2nc(OCc3conc3C)[nH]c(=O)c12 [Compound 665],> 1000
22,CCc1cc(=O)oc2nc(OCCN3CCCCC3)[nH]c(=O)c12 [Compound 578],> 1000
23,CCCCc1cc(=O)oc2nc(OCc3cc[n+]([O-])cc3)[nH]c(=O)c12 [Compound 681],> 1000
24,CCc1cc(=O)oc2nc(OCCCOc3ccccc3)[nH]c(=O)c12 [Compound 596],100 to 1000
25,CCc1cc(=O)oc2nc(OCc3cnc(Br)s3)[nH]c(=O)c12 [Compound 608],100 to 1000
26,CCc1cc(=O)oc2nc(OCc3ccc(-c4cccc(OC)c4)cc3F)[nH]c(=O)c12 [Compound 572],100 to 1000

# Second part, the compound after the results:
row,EC50 [nM],SMILES
1,0.001 to 100,CSCCCc1cc(=O)oc2[nH]c(=O)[nH]c(=O)c12 [Compound 225]
2,100 to 1000,CCCCc1c(-c2ccc(C(F)(F)F)cc2)c(=O)oc2[nH]c(=O)[nH]c(=O)c12 [Compound 708]
3,100 to 1000,O=c1[nH]c(=O)c2c(Cc3ccc(-c4ccccc4F)cc3)cc(=O)oc2[nH]1 [Compound 205]
4,100 to 1000,CCc1cc(=O)oc2nc(OCc3cc(Cl)cc(Cl)c3)[nH]c(=O)c12 [Compound 503]
5,100 to 1000,CCOC(=O)c1cccc(-c2ccccc2COc2nc3oc(=O)cc(CC)c3c(=O)[nH]2)c1 [Compound 547]
6,0.001 to 100,CCc1cc(=O)oc2nc(OCc3cc4cc(C)ccc4s3)[nH]c(=O)c12 [Compound 654]
7,100 to 1000,CCc1cc(=O)oc2nc(OCc3ccccc3-c3ccc(CO[Si](C)(C)C(C)(C)C)cc3)[nH]c(=O)c12 [Compound 651]
8,100 to 1000,CCc1cc(=O)oc2nc(OC(C)COC)[nH]c(=O)c12 (stereo not drawn) [Compound 607]
9,100 to 1000,CCc1cc(=O)oc2nc(OCCOc3ccccc3F)[nH]c(=O)c12 [Compound 614]
10,100 to 1000,CCc1cc(=O)oc2nc(OCc3c(C)noc3-c3ccccc3)[nH]c(=O)c12 [Compound 531]
11,100 to 1000,CCCC(C)c1cc(=O)oc2[nH]c(=O)[nH]c(=O)c12 (stereo not drawn) [Compound 218]
12,100 to 1000,CC1CC(c2cc(=O)oc3[nH]c(=O)[nH]c(=O)c23)C1 (stereo not drawn) [Compound 296]
13,100 to 1000,CCc1cc(=O)oc2nc(OC[C@H]3CN([C@H](C)c4ccccc4)C(=O)O3)[nH]c(=O)c12 [Compound 613]
14,100 to 1000,CCCCc1cc(=O)oc2[nH]c(=O)n(CC3CC3)c(=O)c12 [Compound 258]
15,100 to 1000,CCc1cc(=O)oc2nc(OCCOc3ccccc3)[nH]c(=O)c12 [Compound 525]
16,100 to 1000,CCc1cc(=O)oc2nc(OCc3ccc(Cl)c(C(F)(F)F)c3)[nH]c(=O)c12 [Compound 521]
17,100 to 1000,CCc1cc(=O)oc2nc(OCc3ccccc3-c3cccc(C(N)=O)c3)[nH]c(=O)c12 [Compound 585]

row,EC50 [nM],SMILES
1,100 to 1000,CCc1cc(=O)oc2nc(OCc3ccccc3-c3cccc(C(=O)NC)c3)[nH]c(=O)c12 [Compound 551]
2,100 to 1000,CCOC(=O)NOc1nc2oc(=O)cc(CCC3CC3)c2c(=O)[nH]1 [Compound 696]
3,100 to 1000,CC1(CCc2cc(=O)oc3[nH]c(=O)[nH]c(=O)c23)CC1 [Compound 272]
4,0.001 to 100,Cc1cc(=O)oc2[nH]c(=O)n(C3CCC3)c(=O)c12 [Compound 252]
5,0.001 to 100,O=c1[nH]c(=O)c2c(CCc3cccs3)cc(=O)oc2[nH]1 [Compound 229]
6,100 to 1000,Cc1ccccc1-c1cc(CCCc2cc(=O)oc3[nH]c(=O)[nH]c(=O)c23)on1 [Compound 243]
7,0.001 to 100,CCOC(=O)NOc1nc2oc(=O)cc(CCC3CCC3)c2c(=O)[nH]1 [Compound 691]
8,100 to 1000,O=c1[nH]c(=O)c2c(CC3Cc4ccccc4C3)cc(=O)oc2[nH]1 [Compound 202]
9,100 to 1000,CCc1cc(=O)oc2nc(OCc3ccc(-c4ccccn4)s3)[nH]c(=O)c12 [Compound 648]
10,0.001 to 100,CCc1cc(=O)oc2nc(OC(C)c3ccc(-c4ccccc4)cc3F)[nH]c(=O)c12 (stereo not drawn) [Compound 569]
11,100 to 1000,CCc1cc(=O)oc2nc(OCC#CC(C)OC)[nH]c(=O)c12 (stereo not drawn) [Compound 672]
12,100 to 1000,CCc1cc(=O)oc2nc(OCc3ccccc3-n3cncn3)[nH]c(=O)c12 [Compound 571]
13,100 to 1000,CCc1cc(=O)oc2nc(OCc3cc(Br)cs3)[nH]c(=O)c12 [Compound 534]
14,100 to 1000,CCc1cc(=O)oc2nc(OCc3cc4ccccc4s3)[nH]c(=O)c12 [Compound 538]
15,100 to 1000,CCc1cc(=O)oc2nc(OCC(C)(O)c3ccccc3)[nH]c(=O)c12 (stereo not drawn) [Compound 599]
16,100 to 1000,CCc1cc(=O)oc2nc(OCc3ccc4c(c3)nnn4C)[nH]c(=O)c12 [Compound 543]
17,0.001 to 100,CCCCc1cc(=O)oc2nc(OCC#CCOC)[nH]c(=O)c12 [Compound 670]

# Same assay, conditions: NA EC50 camp (nM), CHO cells expressing recombinant human NAR; forskolin-stimulated cAMP
row,SMILES,EC50 [nM]
1,CCc1cc(=O)oc2nc(OCC#CCCCO)[nH]c(=O)c12 [Compound 645],0.001 to 100
2,CC#CCCOc1nc2oc(=O)cc(CC)c2c(=O)[nH]1 [Compound 590],100 to 1000
3,CCCC#CCOc1nc2oc(=O)cc(CC)c2c(=O)[nH]1 [Compound 557],0.001 to 100
4,CCc1cc(=O)oc2nc(OCCOC)[nH]c(=O)c12 [Compound 524],100 to 1000

# Same assay, conditions: NA EC50 camp, inhibition of forskolin-stimulated cAMP accumulation, CHO cells expressing recombinant human NAR
row,SMILES,EC50 [nM]
1,CCCCCc1cc(=O)oc2nc(C(F)F)[nH]c(=O)c12 [Compound 743],212
2,O=c1cc(CCC2CC2)c2c(=O)[nH]c(C(F)F)nc2o1 [Compound 752],248

# Same assay, conditions: inhibition of forskolin-stimulated cAMP accumulation, CHO cells expressing recombinant human NAR; read-out: NA EC50 camp
row,EC50 [nM],SMILES
1,8920,CCCCc1cc(=O)oc2nc(C(F)(F)F)[nH]c(=O)c12 [Compound 764]
2,1070,CCCCCc1cc(=O)oc2nc(C(F)F)nc(OCc3ccc(OC)cc3)c12 [Compound 742]
3,36,O=c1cc(CCC2CC2)c2c(=O)n(C3CCC3)c(=O)[nH]c2o1 [Compound 780]
4,407,CCCCc1cc(=O)oc2[nH]c(=O)nc(OCC(F)F)c12 [Compound 828]
5,256,CCCCc1cc(=O)oc2c1c(=O)[nH]c(=O)n2CF [Compound 813]
6,68,CCn1c(=O)[nH]c2oc(=O)cc(CCC3CCCC3)c2c1=O [Compound 781]
7,7730,O=c1cc(CCC2CCCC2)c2c(=O)[nH]c(C(F)(F)F)nc2o1 [Compound 763]
8,17,COn1c(=O)[nH]c(=O)c2c(CCC3CCC3)cc(=O)oc21 [Compound 771]
9,2060,CCCCc1cc(=O)oc2c1c(=O)[nH]c(=O)n2O [Compound 805]
10,308,CCCCc1cc(=O)oc2[nH]c(=O)n(CCF)c(=O)c12 [Compound 818]
11,47.5,CCOC(=O)NOc1nc2oc(=O)cc(CCC3CCC3)c2c(=O)[nH]1 [Compound 691]
12,142,CCCCc1cc(=O)oc2[nH]c(=O)n(CC(F)F)c(=O)c12 [Compound 821]
13,9150,CCCCc1cc(=O)oc2c1c(=O)[nH]c(=O)n2OCC [Compound 778]
14,531,O=c1nc(OCC(F)F)c2c(CCCC3CC3)cc(=O)oc2[nH]1 [Compound 831]
15,> 10000,CCCCc1cc(=O)oc2c1c(=O)[nH]c(=O)n2N1CCOCC1 [Compound 796]
